Data as given in PMC12154458, “High-Throughput Screens of Repurposing Hub and DOS Chemical Libraries Reveal Compounds with Novel and Potent Inhibitory Activity Against the Essential Non-Neuronal Acetylcholinesterase of Schistosoma mansoni (SmTAChE)” (International Journal of Molecular Sciences, 2025).

Key:
[1] = biological target: recombinant human acetylcholinesterase, rHsAChE (Homo sapiens, UniProt P22303); experiment: biochemical; details: for IC50: read-out: qAC50 (IC50), rHsAChE
[2] = biological target: T1, rSmTAChE (Schistosoma mansoni, UniProt A0A3Q0KMM5); experiment: biochemical
T1 sequence (A0A3Q0KMM5 27-661 limits assumed): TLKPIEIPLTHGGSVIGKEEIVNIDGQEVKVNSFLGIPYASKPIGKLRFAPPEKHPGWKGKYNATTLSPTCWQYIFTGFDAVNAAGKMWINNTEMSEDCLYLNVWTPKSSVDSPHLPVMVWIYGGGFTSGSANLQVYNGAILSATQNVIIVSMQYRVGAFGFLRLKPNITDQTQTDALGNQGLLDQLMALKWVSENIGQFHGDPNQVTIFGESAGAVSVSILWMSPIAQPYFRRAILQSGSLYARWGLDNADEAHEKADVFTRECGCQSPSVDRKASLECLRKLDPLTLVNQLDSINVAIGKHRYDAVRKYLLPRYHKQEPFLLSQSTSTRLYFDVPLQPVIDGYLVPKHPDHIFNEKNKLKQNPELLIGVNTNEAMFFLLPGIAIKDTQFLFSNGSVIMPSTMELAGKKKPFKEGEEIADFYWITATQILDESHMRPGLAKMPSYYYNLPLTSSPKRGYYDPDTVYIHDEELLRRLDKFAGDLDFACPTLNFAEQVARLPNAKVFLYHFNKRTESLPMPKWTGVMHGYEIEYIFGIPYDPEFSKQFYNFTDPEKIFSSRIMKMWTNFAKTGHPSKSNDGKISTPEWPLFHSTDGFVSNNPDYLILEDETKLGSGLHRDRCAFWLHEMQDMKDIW

[3] = biological target: T1, rSmTAChE; format: biochemical; details: for IC50: read-out: qAC50 (IC50), rSmTAChE
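Wherever Inhibition (%) (Average) is given: mostly 20 µM final but a few compounds at 5 or 10 µM.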
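Wherever Inhibition (%) Replicate A is given: mostly 20 µM final but a few compounds at 5 or 10 µM.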
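Wherever Inhibition (%) Replicate B is given: mostly 20 µM final but a few compounds at 5 or 10 µM.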

Sequence of recombinant human acetylcholinesterase, rHsAChE (P22303 32-614): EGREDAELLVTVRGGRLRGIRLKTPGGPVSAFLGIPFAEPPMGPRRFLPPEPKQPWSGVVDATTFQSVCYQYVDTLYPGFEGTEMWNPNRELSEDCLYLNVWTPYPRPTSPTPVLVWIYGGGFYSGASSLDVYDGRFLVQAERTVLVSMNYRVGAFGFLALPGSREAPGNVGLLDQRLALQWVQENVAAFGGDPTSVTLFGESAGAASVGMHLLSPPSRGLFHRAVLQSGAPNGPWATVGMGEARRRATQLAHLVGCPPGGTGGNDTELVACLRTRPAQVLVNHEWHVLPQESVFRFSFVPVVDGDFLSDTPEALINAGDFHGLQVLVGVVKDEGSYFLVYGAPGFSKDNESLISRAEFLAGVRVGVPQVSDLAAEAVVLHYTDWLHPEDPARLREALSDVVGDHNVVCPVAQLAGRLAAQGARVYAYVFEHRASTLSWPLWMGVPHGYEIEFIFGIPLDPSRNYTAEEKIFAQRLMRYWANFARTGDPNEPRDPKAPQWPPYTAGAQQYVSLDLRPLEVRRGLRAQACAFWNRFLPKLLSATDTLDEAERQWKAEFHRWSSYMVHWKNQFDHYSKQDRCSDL

Row | SMILES | Data Mode (curve class), rHsAChE [1] | Inhibition (%) (Average) [2] | Inhibition (%) Replicate A [2] | Inhibition (%) Replicate B [2] | Data Mode (curve class), rSmTAChE [3] | IC50 [3] | IC50 [1]
1 | COC(=O)C1=C(C)NC(C)=C(C(=O)OC(C)(C)CN(C)CCC(c2ccccc2)c2ccccc2)C1c1cccc([N+](=O)[O-])c1 (stereo not shown) [BRD-A18992208-003-02-7] | inactive | 78.14% | 77.49% | 78.79% | inactive |  | 
2 | Cc1cc(Oc2ccc3nc(COc4ccc(CC5SC(=O)NC5=O)cc4)n(C)c3c2)cc(C)c1N (stereo not shown) [BRD-A24560335-300-01-2] | inactive | 64.01% | 61.34% | 66.67% | decreasing (weakly active) | > 38 µM | 
3 | Clc1ccc(C(c2ccccc2Cl)C(Cl)Cl)cc1 (stereo not shown) [BRD-A31204924-001-14-2] | decreasing (weakly active) | 71.30% | 71.94% | 70.66% | inactive |  | > 38 µM
4 | Clc1ccc(C(Cn2ccnc2)OCc2ccc(Sc3ccccc3)cc2)c(Cl)c1 (stereo not shown) [BRD-A33697453-008-02-4] | inactive | 70.27% | 64.14% | 76.40% | inactive |  | 
5 | CCCCCCCCCCCC([NH2+][O-])c1cc(C)ccc1O (stereo not shown) [BRD-A37752546-001-01-9] | decreasing | 84.23% | 82.45% | 86.01% | inactive |  | 7.8 µM
6 | CC(=O)[C@@]12OC(C)(c3ccccc3)O[C@@H]1C[C@H]1[C@@H]3CCC4=CC(=O)CC[C@]4(C)[C@H]3CC[C@@]12C (stereo partly shown) [BRD-A41774846-001-01-4] | inactive | 86.37% | 86.06% | 86.68% | decreasing (weakly active) | > 38 µM | 
7 | COC(=O)C1=C(C)NC(C)=C(C(=O)OC/C=C/c2ccccc2)C1c1cccc([N+](=O)[O-])c1 (stereo not shown) [BRD-A68083442-001-01-6] | inactive | 87.10% | 86.49% | 87.72% | inactive |  | 
8 | Clc1ccc(CSC(Cn2ccnc2)c2ccc(Cl)cc2Cl)cc1 (stereo not shown) [BRD-A70649075-008-30-8] | decreasing (weakly active) | 65.58% | 67.22% | 63.95% | decreasing (weakly active) | > 38 µM | > 38 µM
9 | C[C@]12CCC3c4ccc(OC(=O)c5ccccc5)cc4CCC3C1CC[C@@H]2O (stereo partly shown) [BRD-A74765037-001-01-1] | inactive | 66.55% | 67.53% | 65.56% | inactive |  | 
10 | C[C@]12CC[C@@H]3c4ccc(O)cc4C[C@@H](CCCCCCCCC[S+]([O-])CCCC(F)(F)C(F)(F)F)[C@H]3[C@@H]1CC[C@@H]2O (stereo partly shown) [BRD-A85667082-001-10-1] |  | 87.19% | 87.84% | 86.54% |  |  | 
11 | C[C@]12CC[C@@H]3c4ccc(O)cc4C[C@@H](CCCCCCCCC[S+]([O-])CCCC(F)(F)C(F)(F)F)[C@H]3[C@@H]1CC[C@@H]2O (stereo partly shown) [BRD-A85667082-001-11-9] | decreasing (weakly active) | 64.36% | 64.01% | 64.71% | inactive |  | > 13.5 µM
12 | C[C@]12CC[C@@H]3c4ccc(O)cc4C[C@@H](CCCCCCCCC[S+]([O-])CCCC(F)(F)C(F)(F)F)[C@H]3[C@@H]1CC[C@@H]2O (stereo partly shown) [BRD-A85667082-001-12-7] | inactive |  |  |  | decreasing (weakly active) | > 38 µM | 
13 | C[C@]12CC[C@@H]3c4ccc(O)cc4C[C@@H](CCCCCCCCC[S+]([O-])CCCC(F)(F)C(F)(F)F)[C@H]3[C@@H]1CC[C@@H]2O (stereo partly shown) [BRD-A85667082-001-13-5] | inactive | 86.15% | 85.50% | 86.80% | inactive |  | 
14 | CC(C)(C)c1ccc(CN2CCN(C(c3ccccc3)c3ccc(Cl)cc3)CC2)cc1 (stereo not shown) [BRD-A91444184-300-01-9] | inactive | 84.37% | 84.75% | 83.99% | inactive |  | 
15 | C[C@]12CCC3c4ccc(O)cc4CCC3C1CC[C@@H]2OC(=O)CCC1CCCC1 (stereo partly shown) [BRD-A91452556-001-04-0] | decreasing (weakly active) | 88.63% | 90.28% | 86.98% | inactive |  | > 38 µM
16 | COC(=O)CCSCc1ccc(-c2onc(C)c2NC(=O)OC(C)c2ccccc2Cl)cc1 (stereo not shown) [BRD-A94323479-001-02-8] | decreasing (weakly active) | 67.17% | 60.59% | 73.75% | inactive |  | > 38 µM
